# pIC50: −log10 of the molar value. Structures can show the parent of a compound that is named as a salt.
# Target: T1, Human full-length CaMKIIδ (Homo sapiens, UniProt Q13557)
# T1 construct: Human full-length CaMKIIδ (Cat #02-111) was obtained from Carna Biosciences; GST; purchased Carna Biosciences 02-111
# Assay: Human CaMKII enzyme inhibition assay (radiometric kinase assay)
# Type: biochemical
# Details: 3 μM compound; 500 nM ATP; 0.5 nM CaMKIIδ
# Procedure: In Vitro CaMKIIδ Inhibitory Activity was Evaluated by an Enzyme Assay.
# Human CaMKII Enzyme Inhibition Assay
# Kinase assay for CaMKIIs was performed using the radiometric assay. Human full-length CaMKIIδ (Cat #02-111) was obtained from Carna Biosciences (Kobe, Japan).
# Enzyme reactions were performed in 25 mM HEPES, pH 7.5, with 5 mM magnesium chloride, 1 mM calcium chloride, 10 μg/mL Calmodulin, 2 mM DTT, 0.01% Tween20 and 500 nM ATP (0.2 μCi/well of [γ-33P] ATP) containing 0.5 nM CaMKIIδ and 0.1 μM autophosphorylation peptide (KKALRRQETVDAL)(Toray Research Center).
# After incubating the enzyme, peptide, and compounds for 5 min, kinase reactions were initiated by adding ATP, followed by incubation for 60 min at room temperature in a total volume of 50 μL. The reactions were terminated by the addition of 10% trichloroacetic acid (final concentration). The [γ-33P]-phosphorylated proteins were filtered in a Harvest Plate (Merck Millipore) with a Cell Harvester (PerkinElmer) and then free [γ-33P] ATP was washed out with 3% phosphoric acid. The plates were dried, followed by the addition of 40 μl of MicroScintO (PerkinElmer). The radioactivity was counted by a TopCount scintillation counter (PerkinElmer). The signals of the reaction without enzyme were defined as 100% inhibitory activity and those of the reaction without inhibitors as 0% inhibitory activity. In vitro CaMKIIδ inhibitory activity was evaluated by % inhibitory activity of 3 μM compound concentration.
row,Structure (SMILES),CaMKIIδ inhibitory activity (%) at 3 μM
1,"COc1cc(N2CCC(N3CCOCC3)CC2)ccc1Nc1ncc(-c2ccc(C#N)c(O[C@@H](C)Cn3cnnn3)c2)cn1 [Example 9, 4-(2-((2-methoxy-4-(4-(morpholin-4-yl)piperidin-1-yl)phenyl)amino)pyrimidin-5-yl)-2-(((2S)-1-(1H-tetrazol-1-yl)propan-2-yl)oxy)benzonitrile]",99%

# Same assay, conditions: 3 μM compound; 500 nM ATP; 0.5 nM CaMKIIδ; hydrochloride
row,Structure (SMILES),CaMKIIδ inhibitory activity (%) at 3 μM
1,"COc1cc(N2CCC(N3CCOCC3)CC2)ccc1Nc1ncc(-c2ccc(C#N)c(O[C@@H](C)Cn3cncn3)c2)cn1 [Example 8, 4-(2-((2-methoxy-4-(4-(morpholin-4-yl)piperidin-1-yl)phenyl)amino)pyrimidin-5-yl)-2-(((2S)-1-(1H-1,2,4-triazol-1-yl)propan-2-yl)oxy)benzonitrile hydrochloride]",98%

# Same assay, conditions: 3 μM compound; 500 nM ATP; 0.5 nM CaMKIIδ; read-out: CaMKIIδ inhibitory activity (%) at 3 μM
row,Structure (SMILES),inhibition at 3 µM
1,"COc1cc(N2CCC(N3CCOCC3)CC2)ncc1Nc1ncc(-c2ccc(C#N)c(O[C@@H](C)Cn3cnnn3)c2)cn1 [Example 57, 4-(2-((4-methoxy-6-(4-(morpholin-4-yl)piperidin-1-yl)pyridin-3-yl)amino)pyrimidin-5-yl)-2-(((2S)-1-(1H-tetrazol-1-yl)propan-2-yl)oxy)benzonitrile]",99%
2,"COc1ccc(N2CCC(N3CCOCC3)CC2)cc1Nc1ncc(-c2ccc(C#N)c(O[C@@H](C)Cn3cnnn3)c2)cn1 [Example 202, 4-(2-((2-methoxy-5-(4-(morpholin-4-yl)piperidin-1-yl)phenyl)amino)pyrimidin-5-yl)-2-(((2S)-1-(1H-tetrazol-1-yl)propan-2-yl)oxy)benzonitrile]",99%
3,"COc1ccccc1Nc1ncc(-c2ccc(C#N)c(O[C@@H](C)Cn3cncn3)c2)cn1 [Example 2, 4-(2-((2-methoxy-phenyl)amino)pyrimidin-5-yl)-2-(((2S)-1-(1H-1,2,4-triazol-1-yl)propan-2-yl)oxy)benzonitrile]",96%
4,"COc1cc(CNC2CC2)ccc1Nc1ncc(-c2ccc(C#N)c(O[C@@H](C)Cn3cncn3)c2)cn1 [Example 33, 4-(2-((4-((cyclopropylami-no)methyl)-2-methoxy-phenyl)amino)pyrimidin-5-yl)-2-(((2S)-1-(1H-1,2,4-triazol-1-yl)propan-2-yl)oxy)benzonitrile dihydrochloride]",98%
5,"COc1cc(C(=O)N2CC3(CN(C)C3)C2)ccc1Nc1ncc(-c2ccc(C#N)c(O[C@@H](C)Cn3cnnn3)c2)cn1 [Example 172, 4-(2-((2-methoxy-4-((6-methyl-2,6-diazaspiro[3.3]hept-2-yl)carbonyl)phenyl)ami-no)pyrimidin-5-yl)-2-(((2S)-1-(1H-tetrazol-1-yl)propan-2-yl)oxy)benzonitrile]",100%
6,"C[C@@H](Cn1cncn1)Oc1cc(-c2cnc(Nc3cnn(CC(C)(C)C#N)c3)nc2)ccc1C#N [Example 365, 4-(2-((1-(2-cyano-2-methylpropyl)-1H-pyrazol-4-yl)amino)pyrimidin-5-yl)-2-(((2S)-1-(1H-1,2,4-triazol-1-yl)propan-2-yl)oxy)benzonitrile]",98%
7,"COc1cc(CNC2CC2)ccc1Nc1ncc(-c2ccc(C#N)c(O[C@@H](C)Cn3cnnn3)c2)cn1 [Example 52, 4-(2-((4-((cyclopropylami-no)methyl)-2-methoxy-phenyl)amino)pyrimidin-5-yl)-2-(((2S)-1-(1H-tetrazol-1-yl)propan-2-yl)oxy)benzonitrile hydrochloride]",100%
8,"COc1ccc(N2CCC(N3CCOCC3)CC2)cc1Nc1ncc(-c2ccc(Cl)c(O[C@@H](C)Cn3cnnn3)c2)cn1 [Example 214, 5-(4-chloro-3-(((2S)-1-(1H-tetrazol-1-yl)propan-2-yl)oxy)phenyl)-N-(2-methoxy-5-(4-(morpholin-4-yl)piperidin-1-yl)phenyl)pyrimidin-2-amine]",100%
9,"COc1cc(N2CCC(N3C[C@H]4CC[C@@H](C3)O4)CC2)ccc1Nc1ncc(-c2ccc(Cl)c(O[C@@H](C)Cn3cnnn3)c2)cn1 [Example 213, 5-(4-chloro-3-(((2S)-1-(1H-tetrazol-1-yl)propan-2-yl)oxy)phenyl)-N-(2-methoxy-4-(4-((1R,5S)-8-oxa-3-azabicyclo[3.2.1]oct-3-yl)piperidin-1-yl)phenyl)pyrimidin-2-amine]",100%
10,"COc1cc(C(=O)NC2CCOCC2)ccc1Nc1ncc(-c2ccc(C#N)c(O[C@@H](C)Cn3cnnn3)c2)cn1 [Example 87, 4-((5-(4-cyano-3-(((2S)-1-(1H-tetrazol-1-yl)propan-2-yl)oxy)phenyl)pyrimidin-2-yl)amino)-3-methoxy-N-(tetrahydro-2H-pyran-4-yl)benzamide]",98%
11,"C[C@@H](Cn1cncn1)Oc1cc(-c2cnc(Nc3cn(C)nc3C(F)(F)F)nc2)ccc1C#N [Example 376, 4-(2-((1-methyl-3-(trifluoromethyl)-1H-pyrazol-4-yl)amino)pyrimidin-5-yl)-2-(((2S)-1-(1H-1,2,4-triazol-1-yl)propan-2-yl)oxy)benzonitrile]",97%
12,"COc1cc(N2CCC(N3CCOCC3)CC2)ccc1Nc1ncc(-c2ccc(C#N)c(O[C@@H](C)Cn3cnnn3)c2)cn1 [Example 10, 4-(2-((2-methoxy-4-(4-(morpholin-4-yl)piperidin-1-yl)phenyl)amino)pyrimidin-5-yl)-2-(((2S)-1-(1H-tetrazol-1-yl)propan-2-yl)oxy)benzonitrile hydrochloride]",98%
13,"C[C@@H](Cn1cncn1)Oc1cc(-c2cnc(Nc3cn[nH]c3)nc2)ccc1C#N [Example 379, 4-(2-(1H-pyrazol-4-ylamino)pyrimidin-5-yl)-2-(((2S)-1-(1H-1,2,4-triazol-1-yl)propan-2-yl)oxy)benzonitrile]",98%

# Target: T2, Full-length, GST-tagged, human CaMKIIδ (Homo sapiens, UniProt Q13557)
# T2 construct: Full-Length, Glutathione-S-Transferase(GST)-Tagged, Human CaMKIIδ was purchased from Carna Biosciences; purchased Carna Biosciences 02-111
# Assay: CaMKIIδ binding assay (TR-FRET with BODIPY-labeled probe ligand)
# Details: CaMKIIδ binding assay, results of Table 2
# Outline: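 Compounds were tested as 4-fold, eight-point series for 1 hr at room temperature, and IC50 was obtained by logistic fitting against a 3 μM parent-compound control. Signal came from displacement of a 300 nM BODIPY ligand from 0.5 nM GST-CaMKIIδ, detected via Tb-anti-GST in calmodulin/Ca2+ (pH 7.6).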
# T2 sequence (Q13557 1-478 isoform Q13557-12): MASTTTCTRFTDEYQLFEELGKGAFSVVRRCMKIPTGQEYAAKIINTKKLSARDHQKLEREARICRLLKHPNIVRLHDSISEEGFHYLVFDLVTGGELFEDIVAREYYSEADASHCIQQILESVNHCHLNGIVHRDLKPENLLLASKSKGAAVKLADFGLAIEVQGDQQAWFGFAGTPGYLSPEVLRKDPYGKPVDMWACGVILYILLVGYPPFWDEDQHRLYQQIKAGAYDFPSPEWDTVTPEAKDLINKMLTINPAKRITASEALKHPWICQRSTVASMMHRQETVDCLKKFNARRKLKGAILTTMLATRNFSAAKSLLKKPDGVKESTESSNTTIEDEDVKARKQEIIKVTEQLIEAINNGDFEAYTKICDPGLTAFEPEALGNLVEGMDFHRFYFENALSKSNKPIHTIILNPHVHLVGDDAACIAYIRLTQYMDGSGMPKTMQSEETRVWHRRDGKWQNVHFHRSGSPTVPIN
row,Structure (SMILES),pIC50
1,"COc1cc2c(cc1Nc1ncc(-c3ccc(Cl)c(O[C@@H](C)Cn4cnnn4)c3)cn1)CN(C(=O)CN1CCOCC1)CC2 [Example 501, (S)-1-(7-((5-(3-((1-(1H-tetrazol-1-yl)propan-2-yl)oxy)-4-chlorophenyl)pyrimidin-2-yl)amino)-6-methoxy-3,4-dihydroisoquinolin-2(1H)-yl)-2-morpholinoethan-1-one]",7.00 to 8.00

# Same assay, conditions: CaMKIIδ binding assay; activity class per Table 2
row,Structure (SMILES),pIC50
1,"C[C@@H](Cn1cnnn1)Oc1cc(-c2cnc(Nc3cn(CC4(O)CCC(=O)CC4)nc3OCC(F)(F)F)nc2)ccc1Cl [Example 903, (S)-4-((4-((5-(3-((1-(1H-tetrazol-1-yl)propan-2-yl)oxy)-4-chlorophenyl)pyrimidin-2-yl)amino)-3-(2,2,2-trifluoroethoxy)-1H-pyrazol-1-yl)methyl)-4-hydroxycyclohexan-1-one]",> 8.00
2,"COCCN1CC2(CC(n3cc(Nc4ncc(-c5ccc(Cl)c(O[C@@H](C)Cn6cnnn6)c5)cn4)c(C(C)C)n3)C2)C1 [Example 1012, (S)-5-(3-((1-(1H-tetrazol-1-yl)propan-2-yl)oxy)-4-chlorophenyl)-N-(3-isopropyl-1-(2-(2-methoxyethyl)-2-azaspiro[3.3]heptan-6-yl)-1H-pyrazol-4-yl)pyrimidin-2-amine]",> 8.00

# Same assay, conditions: Table 2; CaMKIIδ binding assay, activity given as class A/B/C
row,Structure (SMILES),pIC50
1,"CC(C)c1nn([C@H]2CC[C@@H](N3CCOCC3)CC2)cc1Nc1ncc(-c2ccc(Cl)c(O[C@@H](C)Cn3cnnn3)c2)cn1 [Example 842, 5-(3-(((S)-1-(1H-tetrazol-1-yl)propan-2-yl)oxy)-4-chlorophenyl)-N-(3-isopropyl-1-(cis-4-morpholinocyclohexyl)-1H-pyrazol-4-yl)pyrimidin-2-amine]",> 8.00
2,"C[C@@H](Cn1cnnn1)Oc1cc(-c2cnc(Nc3cn([C@H]4CC[C@H](N5CCC[C@H]5CO)CC4)nc3OC[C@@H]3CC3(F)F)nc2)ccc1Cl [Example 871, ((S)-1-(trans-4-(4-((5-(3-(((S)-1-(1H-tetrazol-1-yl)propan-2-yl)oxy)-4-chlorophenyl)pyrimidin-2-yl)amino)-3-(((S)-2,2-difluorocyclopropyl)methoxy)-1H-pyrazol-1-yl)cyclohexyl)pyrrolidin-2-yl)methanol]",> 8.00
3,"C[C@@H](Cn1cnnn1)Oc1cc(-c2cnc(Nc3cn([C@@H]4C[C@H]5CC[C@@H](C4)N5C4CC4)nc3C(F)(F)F)nc2)ccc1Cl [Example 757, 5-(3-(((S)-1-(1H-tetrazol-1-yl)propan-2-yl)oxy)-4-chlorophenyl)-N-(1-((1R,3s,5S)-8-cyclopropyl-8-azabicyclo[3.2.1]octan-3-yl)-3-(trifluoromethyl)-1H-pyrazol-4-yl)pyrimidin-2-amine]",> 8.00

# Reference: patent publication US10543212B2, “Substituted amines for treating cardiac diseases” (Cardurion Pharmaceuticals, LLC, priority 2017, dated 2020)
